Laboratory results taken from patent publication US7807867B2, “Gene encoding protein involved in cytokinin synthesis” (Suntory Holdings Limited, priority 2001, dated 2010).

B1: AtIPT4 (Arabidopsis thaliana) (protein)
chain: MKCNDKMVVIMGATGSGKSSLSVDLALHFKAEIINSDKMQFYDGLKITTNQSTIEDRRGVPHHLLGELNPEAGEVTAAEFRVMAAEAISEITQRKKLPILAGGSNSYIHALLAKSYDPENYPFSDHKGSICSELKYDCCFIWIDVDQSVLFEYLSLRLDLMMKSGMFEEIAEFHRSKKAPKEPLGIWKAIGVQEFDDYLKMYKWDNDMDKWDPMRKEAYEKAVRAIKENTFQLTKDQITKINKLRNAGWDIKKVDATASFREAIRAAKEGEGVAEMQRKIWNKEVLEPCVKIVRSHLDQPINYYYYYFYLLKRFLSLN

What was measured:
[1] = target: T1, AtIPT4 (Arabidopsis thaliana, UniProt Q9SB60); assay: Enzyme activity of purified AtIPT4 protein (dimethylallyl transfer, Km); format: biochemical; details: for transfer of the dimethylallyl group of DMAPP to the substrate: 3H-labeled substrate at 0.25 μM, Ni-NTA bound AtIPT4 (Sample D), 30 minutes at 23° C.
T1 construct: made in house
T1 sequence (Q9SB60 1-318): B1 chain
Experimental: This was designated as Sample A. 400 μl of Ni-NTA agarose suspension (containing 110 μl of Ni-NTA agarose as precipitate, 30 mM NaH2PO4 (pH 8), […], 0.9 M NaCl, 7.5 mM β-mercaptoethanol, 0.5 mM PMSF and 30 μg/ml of leupeptin) were added to 800 μl of Sample A. This suspension was designated as Sample B. Sample B was then centrifuged to separate into supernatant (Sample C) and precipitate. Washing liquid (consisting of 20 mM NaH2PO4 (pH 8), […], 0.3 M NaCl, 5 mM β-mercaptoethanol, 0.5 mM PMSF and 10 μg/ml of leupeptin) was added to the precipitate, and the Ni-NTA agarose was washed four times using a procedure in which the precipitate was recovered by centrifugation. […] After adding 700 μl of ethyl acetate to this reaction liquid followed by stirring and centrifuging, 550 μl of the ethyl acetate layer were recovered followed by the addition of 500 μl of distilled water. After stirring and centrifugal separation, 350 μl of the ethyl acetate layer were recovered followed again by the addition of 500 μl of distilled water. After again stirring and separating by centrifugation, 0.5 ml of ACSII (Pharmacia) were added to 50 μl of the ethyl acetate layer followed by measurement of radioactivity with a liquid scintillation counter.

[2] = target: T2, AtIPT1 (Arabidopsis thaliana, UniProt Q94ID3); assay: Enzyme activity of AtIPT1 protein (dimethylallyl transfer); format: biochemical
T2 construct: made in house
T2 sequence (Q94ID3 72-357): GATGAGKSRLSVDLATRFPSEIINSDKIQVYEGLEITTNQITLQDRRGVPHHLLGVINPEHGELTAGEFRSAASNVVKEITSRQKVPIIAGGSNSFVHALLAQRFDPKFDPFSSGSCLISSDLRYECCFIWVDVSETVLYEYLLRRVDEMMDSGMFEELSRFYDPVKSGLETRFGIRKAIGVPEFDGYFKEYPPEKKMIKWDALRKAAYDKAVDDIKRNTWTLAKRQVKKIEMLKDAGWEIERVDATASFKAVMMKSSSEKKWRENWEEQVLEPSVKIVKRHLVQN

[3] = target: tzs (Agrobacterium fabrum, UniProt P58758); details: read-out: Km of tzs for AMP; cited from earlier work
Chain of tzs (P58758 whole entry): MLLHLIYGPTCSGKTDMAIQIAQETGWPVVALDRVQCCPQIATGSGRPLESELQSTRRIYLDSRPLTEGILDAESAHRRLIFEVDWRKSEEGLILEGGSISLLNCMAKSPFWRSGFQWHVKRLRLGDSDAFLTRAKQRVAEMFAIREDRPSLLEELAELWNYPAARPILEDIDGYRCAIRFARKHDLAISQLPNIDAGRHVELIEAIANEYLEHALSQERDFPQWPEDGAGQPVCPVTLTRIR

[4] = substrate: CC(C)=CCOP(=O)(O)OP(=O)(O)O; assay: purified protein, by the assay type; details: other: in the presence of 200 μM ATP; purified recombinant AtIPT4 protein; 23.0 °C

| Molecule | transfer of the dimethylallyl group of DMAPP to the substrate [1] | transfer of a dimethylallyl group to the substrate [2] | Km [3] [µM] | Km ([1]; in the presence of 0.4 mM DMAPP, purified recombinant AtIPT4 protein (2 ng/ml), read-out: Km for ATP) [µM] | Km [4] [µM] |
| --- | --- | --- | --- | --- | --- |
| Nc1ncnc2c1ncn2[C@@H]1O[C@H](COP(=O)(O)OP(=O)(O)O)[C@@H](O)[C@H]1O [ADP] | efficiently transferred | activity that transfers a dimethylallyl group |  |  |  |
| Nc1ncnc2c1ncn2[C@@H]1O[C@H](COP(=O)(O)O)[C@@H](O)[C@H]1O [AMP, adenosine monophosphate] |  |  | 11.1 |  |  |
| Nc1ncnc2c1ncn2[C@@H]1O[C@H](COP(=O)(O)OP(=O)(O)OP(=O)(O)O)[C@@H](O)[C@H]1O [ATP] | efficiently transferred | activity that transfers a dimethylallyl group |  | ~11.1 |  |
| B1 |  |  |  |  | 6.5 |
